Literature values, collected in US6962905B1, “Pharmaceutical formulation comprising a low molecular weight thrombin inhibitor and its prodrug” (AstraZeneca AB, priority 1999, dated 2005).

Test system: DVT after total hip/knee replacement or major surgery
Conditions: background statements from literature

Compound | effect on incidence of DVT after surgery
hirudin | superior to unfractionated heparin and LMWH
CC(=O)Oc1ccccc1C(=O)O [aspirin] | limited efficacy
CC(=O)CC(c1ccccc1)c1c(O)c2ccccc2oc1=O (stereo not drawn) [warfarin] | effective in reducing DVT
